What was measured:
[1] = tested on: RP-B-01, RP-B-02 and T24 cell lines; assay: Alamar blue combination study with cisplatin; assay type: cell-based, human; details: combined with increasing concentrations of cisplatin, 72 h
Procedure: FIGS. 30A-30C. […] RP-B-01, RP-B-02, and T24 cell lines were treated with increasing concentrations of cisplatin in combination with a single dose of either APX2009 or APX2014 as indicated (n=3±SE). Cell proliferation was normalized to Saline control and expressed as Fold Change. Combination index (CI) values calculated with Compusyn for combination of APX inhibitors and cisplatin. CI values indicated mainly additivity (0.95-1.2) to synergy (0.8-0.94).
Bladder cancer cell lines (BLCAb001 (RP-B-01) and BLCAb002 (RP-B-02) maintained in RPMI growth medium with 10% FBS were plated at 4,000 cells/well in poly-D-lysine treated 96-well clear bottom black plates and grown overnight in 5% CO2 at 37° C. Cells in monolayer were then treated with increasing concentrations of redox-specific inhibitor APX3330, APX2014 or APX2009 and serially diluted 1:2 in a 5-point dose scheme. For combination studies, cells were treated with both cisplatin and APX compounds to determine efficacy. After 72 hours, fresh RPMI medium with 5% FBS was exchanged, and a fluorescent metabolic indicator, Alamar Blue was added to each well at 10% final concentration. After a 4 hour incubation, plates were read on a Synergy H4 (Bio-Tek) plate reader. […]
APE1/Ref-1 inhibition enhances cisplatin's therapeutic effect. […] Cell proliferation was assessed using Alamar blue 72 h after drug treatment.

[2] = target: redox function of Ape1/Ref-1 (Homo sapiens, UniProt P27695); assay: Selective inhibition of the redox function of Ape1/Ref-1
redox function of Ape1/Ref-1, sequence (P27695 whole entry): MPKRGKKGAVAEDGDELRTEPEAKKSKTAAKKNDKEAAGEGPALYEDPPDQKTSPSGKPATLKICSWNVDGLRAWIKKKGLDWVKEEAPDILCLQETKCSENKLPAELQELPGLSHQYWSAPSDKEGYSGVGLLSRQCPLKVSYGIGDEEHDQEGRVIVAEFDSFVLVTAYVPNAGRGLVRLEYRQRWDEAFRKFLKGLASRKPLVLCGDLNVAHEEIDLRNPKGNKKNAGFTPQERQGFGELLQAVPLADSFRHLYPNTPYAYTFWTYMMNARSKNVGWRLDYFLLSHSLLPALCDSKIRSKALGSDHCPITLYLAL

ECFC colonies = assay: Limiting dilution assay (LDA); assay type: cell-based; details: 25, 37.5, 50 μM
Procedure: Limiting dilution assay. […] ECFCs were cultured as previously described (Blood, 1 Nov. 2004, Vol. 104, No. 9, pp. 2752-2760). ECFC colonies appeared between 5 and 22 days of culture. Colonies and the number of cells per colony were counted by visual inspection using an inverted microscope. […] Increasing amounts of APX3330(RN3-3) leads to a decrease in the number of colonies with large numbers of cells and an increase in colonies with only small cell numbers indicative of inhibition of cell growth. (FIG. 9). (In FIG. 9, the bars are, left to right, EtOH, and E330 dosed at 25 μM, 37.5 μM, and 50 μM.)

[3] = Preliminary in vivo safety in mice (body weight); details: male mice, under 50 mg/kg
HL-60 cells = assay: HL-60 differentiation and apoptosis with retinoic acid; assay type: cell-based
Procedure: APX3330 in combination with Retinoic Acid. […] HL-60 cells were treated with either vehicle (EtOH; control), APX3330, retinoic acid (RA) or APX3330 and RA at the concentrations indicated and morphology determined on day six. Morphological analysis indicated an increase in the differentiation of the HL-60 cells treated with APX3330 (RN3-3).

multiple myeloma cells = assay: Phospho-histone H2AX western blot (DNA double stranded breaks); assay type: cell-based; details: combination with melphalan
Procedure: APX3330 in combination with chemotherapeutic Melphalan. […] Synergistic plots made using CalcuSyn software. APX3330 was either given alone or in combination with melphalan. As an indicator of DNA double stranded breaks (DSBs), the phosphorylation of histone H2AX at Ser^139 was measured with a phosphorylation-specific H2AX antibody from Upstate Cell Signaling Solutions (Waltham, Md.). Cells were treated with melphalan alone or melphalan plus APX3330. After drug treatment, exponentially growing cells were harvested, washed in cold PBS, and lysed in about 100 μL RIPA assay buffer as described above. Protein was quantified and electrophoresed in SDS gel-loading buffer on a 12% SDS-polyacrylamide gel. Mouse monoclonal anti-phosphohistone H2AX (about 1:1000) or anti-actin antibody (about 1:1000; as a loading control, LabVision Corp., NeoMarkers, Fremont, Calif.) was used to probe for protein levels as described previously. Bands were detected using a chemiluminescence kit from Roche Applied Biosciences (Indianapolis, Ind.). The bands were visualized using Bio-Rad Chemidoc XRS (Hercules, Calif.) and quantitated using Chemidoc software, Quantity One 4.6.1.

pancreatic tumor cells = assay: Annexin V/PI apoptosis assay in pancreatic tumor cells; assay type: cell-based
Procedure: APX3330 in combination with chemotherapeutic Gemcitabine. […] To analyze the cells for apoptosis, cells were plated and allowed to attach overnight. Cells were treated with APX3330 alone or with gemcitabine. Apoptosis was assayed about 24 and 48 hr following treatment. Cells were trypsinized, pelleted, washed in ice-cold PBS, and resuspended in 1× binding buffer [about 10 mmol/L HEPES/NaOH (pH 7.4), 140 mmol/L NaCl, 2.5 mmol/L CaCl2]. Apoptosis was analyzed using the Alexa Fluor 488 AnnexinV from Vybrant Apoptosis Assay kit in combination with propidium iodide (Molecular Probes, Eugene, Oreg.) as described previously Clinical Cancer Research 13, 260-267, Jan. 1, 2007. Cells that were strongly Annexin positive were considered positive for apoptosis. The samples were analyzed by flow cytometry in the Indiana University Cancer Center flow cytometry facility.
APX3330 in combination with Methoxyamine-pancreatic cells. […] To analyze the cells for apoptosis, cells were plated and allowed to attach overnight. […] Apoptosis was analyzed using the Alexa Fluor 488 Annexin V from Vybrant Apoptosis Assay kit in combination with propidium iodide (Molecular Probes, Eugene, Oreg.) as described previously Clinical Cancer Research 13, 260-267, Jan. […] The samples were analyzed by flow cytometry in the Indiana University Cancer Center flow cytometry facility.

**Q.** Which “cellular proliferation when combined with cisplatin” value [1] does the source give for `CCC/C(=C\C1=C(OC)C(=O)c2ccccc2C1=O)C(=O)N(CC)CC` [APX2009, [(2E)-2-[(3-methoxy-1,4-dioxo-1,4-dihydronaphthalen-2-yl)methylidene]-N,N-diethylpentanamide]] here?
**A.** The value was “further reduction in cellular proliferation”.

**Q.** With `CCCCCCCCC/C(=C\C1=C(C)C(=O)C(OC)=C(OC)C1=O)C(=O)O` [APX3330] as the compound, how does the “inhibition of the redox function of Ape1/Ref-1” value [2] read?
**A.** The value was “selectively inhibited”.

**Q.** And the “growth of large cell number colonies” value (ECFC colonies)?
**A.** The value was “inhibit growth of large cell number colonies”.

**Q.** What about the mouse toxicity [3] of the same compound?
**A.** The mouse toxicity was “No mouse toxicity was observed”.

**Q.** And the “increase in cells undergoing apoptosis, APX3330 and RA compared with RA alone” value (HL-60 cells; 25 μM APX3330, day 6)?
**A.** The value was about 1.5.

**Q.** What about the “reduction of RA required for same level of differentiation (CD11)” value (HL-60 cells; addition of APX3330 to RA) of the same compound?
**A.** Its value is “about 1000 fold”.

**Q.** What about the “cell differentiation in combination with retinoic acid” value (HL-60 cells; day six, morphology) of the same compound?
**A.** Its value is “enhanced the effects of retinoic acid on promoting cell differentiation”.

**Q.** What about the “HL-60 cells undergoing apoptosis (annexin/PI) at lower doses of RA” value (HL-60 cells; lower doses of RA) of the same compound?
**A.** The value was “did not significantly enhance the level of HL-60 cells undergoing apoptosis”.

**Q.** What about the “DNA double stranded breaks (phospho-H2AX), melphalan plus APX3330 compared to melphalan alone” value (multiple myeloma cells) of the same compound?
**A.** The value was “increase in DSBs”.

**Q.** What about the “apoptosis in combination with methoxyamine” value (pancreatic tumor cells; about 24 and 96 hr) of the same compound?
**A.** The value was “enhanced the apoptosis inducing effects of methoxyamine”.

**Q.** And the “apoptosis in combination with gemcitabine” value (pancreatic tumor cells; gemcitabine about 0.25 μM, 24 and 48 hr)?
**A.** Its value is “enhanced the apoptosis inducing effects of gemcitabine”.
